Target: T1, human factor Xa (Homo sapiens, UniProt P00742)
T1 construct: human factor Xa; purchased Roche
Test: Inhibition of factor Xa, enzyme-kinetic measurement with chromogenic substrate
Format: biochemical
Settings: chromogenic substrate Chromozym X 200 μMol/l, pH 8.0, 37° C., photometric at 405 nm
Experimental: Method: Enzyme-kinetic measurement with chromogenic substrate. The quantity of anpnitroaniline (pNA) released from the colourless chromogenic substrate by human factor Xa is determined photometrically at 405 nm. It is proportional to the activity of the enzyme used. The inhibition of the enzyme activity by the test substance (in relation to the solvent control) is determined at various concentrations of test substance and from this the IC50 is calculated, as the concentration which inhibits the factor Xa used by 50%.
Material: Tris(hydroxymethyl)-aminomethane buffer (100 mmol) and sodium chloride (150 mMol), pH 8.0
Factor Xa (Roche), spec. activity: 10 U/0.5 ml, final concentration: 0.175 U/ml per reaction mixture
Substrate Chromozym X (Roche), final concentration: 200 μMol/l per reaction mixture
Procedure: 10 μl of a 23.5-times concentrated starting solution of the test substance or solvent (control), 175 μl of tris(hydroxymethyl)-aminomethane buffer and 25 μl of a 1.65 U/ml Factor Xa working solution are incubated for 10 minutes at 37° C. After the addition of 25 μl of Chromozym X working solution ([…]) the sample is measured in a photometer (SpectraMax 250) at 405 nm for 150 seconds at 37° C.
1. Determining the maximum increase (deltaOD/minutes) over 3 measuring points.
2. Determining the % inhibition based on the solvent control.
3. Plotting a dosage/activity curve (% inhibition vs substance concentration).
4. Determining the IC50 by interpolating the X value (substance concentration) of the dosage/activity curve at Y=50% inhibition.

T1 sequence (P00742 235-488 limits assumed): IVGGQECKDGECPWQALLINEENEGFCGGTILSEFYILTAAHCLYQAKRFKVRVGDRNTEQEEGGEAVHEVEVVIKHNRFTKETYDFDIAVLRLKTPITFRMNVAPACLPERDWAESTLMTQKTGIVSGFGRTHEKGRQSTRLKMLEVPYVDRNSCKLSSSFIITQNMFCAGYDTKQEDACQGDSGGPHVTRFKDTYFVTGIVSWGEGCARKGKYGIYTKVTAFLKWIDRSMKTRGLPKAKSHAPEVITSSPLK
T1 sequence (P00742 41-179 partner limits assumed): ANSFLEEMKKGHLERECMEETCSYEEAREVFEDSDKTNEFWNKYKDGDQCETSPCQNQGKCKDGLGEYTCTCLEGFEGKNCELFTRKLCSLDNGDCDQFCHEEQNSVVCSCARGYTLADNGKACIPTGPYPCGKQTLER

`Cc1cc(NC(=O)C(C)(C)c2cccc(C(=N)N)c2)ccc1C(=O)N1CCCC1` [(1)] and `N=C(N)c1ccc(O)c(CC(=O)Nc2ccc(C(=O)N3CCCC3)c(Cl)c2)c1` [(3)] are within 1.5-fold of each other in IC50: 0.028 µM for the first, 0.033 µM for the second.

Compared with `Cc1cc(NC(=O)Cc2cc(C(=N)N)ccc2O)ccc1C(=O)C1CCCNC1` (stereo not shown) [(2)], `N=C(N)c1ccc(O)c(CC(=O)Nc2ccc(C(=O)N3CCCC3)c(C(F)(F)F)c2)c1` [(4)] is 29-fold lower in IC50: 0.32 µM for the first, 0.011 µM for the second.
